Source: patent publication US20140072629A1, “BIOLOGIC MATRICES COMPRISING ANTI-INFECTIVE, METHODS AND COMPOSITIONS RELATED THERETO” (MUSCULOSKELETAL TRANSPLANT FOUNDATION, priority 2008, published 2014)
Read-outs that look alike come from different tables or passages of the source.

What was measured:
[1] = Solubility / saturation point of Triclosan in alcohol and water; format: physicochemical
Excerpt: In particular embodiments, an alcohol solution comprising triclosan is delivered to a hydrated acellular biologic matrix, e.g., a biologic matrix treated with a 40% SDA solution. In other embodiments, the matrix is hydrated with e.g., water, saline solution, and the like. Without being bound to theory, it is thought that the triclosan will partially separate from the alcohol phase due to the triclosan's great differential solubility (alcohol soluble and water insoluble) and deposit as an undissolved agent on the surface of and within the biologic tissue. Therefore, after implantation of the triclosan-treated biologic tissue into a subject, the triclosan will slowly exude or leach off the biologic tissue and out of the alcohol layer directly into the wound zone where bacteria may be collecting. Moreover, some of the triclosan may be held by the insoluble water phase and assist in this slow release. In this regard, where the soluble form of triclosan in alcohol would typically be active right away and dissipate within 8-12 hours in a transplant subject, such as a human abdominal hernia patient, it is thought that the precipitated triclosan in a transplanted treated acellular matrix of the subject invention will reside longer at the wound site, e.g., up to about 24-48 hours after transplantation, thereby increasing the effective amount of anti-infective available at the wound site. […]

[2] = cited from earlier work

Oc1cc(Cl)ccc1Oc1ccc(Cl)cc1Cl [Triclosan, 2,4,4′-trichloro-2′-hydroxy-diphenyl-ether]
saturation point ([1]; 25% alcohol): 600 ppm
saturation point ([1]; 30% alcohol): 1700 ppm
solubility, in words ([2]; in alcohol): very soluble
solubility, in words ([2]; in water): very insoluble
